Measurements: patent US10485235B2, “Aryloxypyrimidinyl ethers as herbicides” (FMC Corporation, priority 2015, dated 2019)

system: blackgrass (Alopecurus myosuroides); assay: Test A postemergence, blackgrass; assay type: in vivo; details: Alopecurus myosuroides, post-emergence, 240 h; 31 g ai/ha, postemergence; 0 to 100 scale, 0 is no effect, 100 is complete control; approximately 10 days; read-out: Plant response rating, Blackgrass
Procedure, shortened: (§1)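 Pre- and postemergence greenhouse screen in loam–sand soil. Test chemicals were delivered in a non-phytotoxic solvent with surfactant, preemergence as a directed spray onto seeded soil and postemergence onto 2–10 cm seedlings. Injury was judged by eye after ~10 days on a 0–100 scale.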

SMILES	pest or weed control at 31 g/ha [%]
N#Cc1cccc(Oc2ncc(Cl)cn2)c1OC/C=C/C(F)(F)F [Compound 8, 3-[(5-chloro-2-pyrimidinyl)oxy]-2-[[(2E)-4,4,4-trifluoro-2-buten-1-yl]oxy]benzonitrile]	20

same assay, conditions: Alopecurus myosuroides, post-emergence, 240 h; 125 g ai/ha, postemergence; 0 to 100 scale, 0 is no effect, 100 is complete control; approximately 10 days; read-out: Plant response rating, Blackgrass

SMILES	pest or weed control at 125 g/ha [%]
N#Cc1cccc(Oc2ncc(Cl)cn2)c1OC/C=C/C(F)(F)F [Compound 8, 3-[(5-chloro-2-pyrimidinyl)oxy]-2-[[(2E)-4,4,4-trifluoro-2-buten-1-yl]oxy]benzonitrile]	40

system: foxtail, giant (giant foxtail, Setaria faberii); assay: Test A preemergence, giant foxtail; assay type: in vivo; details: Setaria faberi, pre-emergence, 240 h; Preemergence, 31 g ai/ha; 0 to 100 scale (0 no effect, 100 complete control); read-out: Plant response rating, Foxtail, Giant
Procedure, shortened: as §1

SMILES	pest or weed control at 31 g/ha [%]
N#Cc1cccc(Oc2ncc(Cl)cn2)c1OC/C=C/C(F)(F)F [Compound 8, 3-[(5-chloro-2-pyrimidinyl)oxy]-2-[[(2E)-4,4,4-trifluoro-2-buten-1-yl]oxy]benzonitrile]	100

same assay, conditions: Setaria faberi, pre-emergence, 240 h; Preemergence, 125 g ai/ha; 0 to 100 scale (0 no effect, 100 complete control); read-out: Plant response rating, Foxtail, Giant

SMILES	pest or weed control at 125 g/ha [%]
N#Cc1cccc(Oc2ncc(Cl)cn2)c1OC/C=C/C(F)(F)F [Compound 8, 3-[(5-chloro-2-pyrimidinyl)oxy]-2-[[(2E)-4,4,4-trifluoro-2-buten-1-yl]oxy]benzonitrile]	100

system: kochia (Kochia scoparia); assay: Test A preemergence, kochia; assay type: in vivo; details: Bassia scoparia, pre-emergence, 240 h; Preemergence, 31 g ai/ha; 0 to 100 scale (0 no effect, 100 complete control); read-out: Plant response rating, Kochia
Procedure, shortened: as §1

SMILES	pest or weed control at 31 g/ha [%]
N#Cc1cccc(Oc2ncc(Cl)cn2)c1OC/C=C/C(F)(F)F [Compound 8, 3-[(5-chloro-2-pyrimidinyl)oxy]-2-[[(2E)-4,4,4-trifluoro-2-buten-1-yl]oxy]benzonitrile]	20

same assay, conditions: Bassia scoparia, pre-emergence, 240 h; Preemergence, 125 g ai/ha; 0 to 100 scale (0 no effect, 100 complete control); read-out: Plant response rating, Kochia

SMILES	pest or weed control at 125 g/ha [%]
N#Cc1cccc(Oc2ncc(Cl)cn2)c1OC/C=C/C(F)(F)F [Compound 8, 3-[(5-chloro-2-pyrimidinyl)oxy]-2-[[(2E)-4,4,4-trifluoro-2-buten-1-yl]oxy]benzonitrile]	100

system: wheat (Triticum aestivum); assay: Test A postemergence, wheat; assay type: in vivo; details: Triticum aestivum, post-emergence, 240 h; 31 g ai/ha, postemergence; 0 to 100 scale, 0 is no effect, 100 is complete control; approximately 10 days; read-out: Plant response rating, Wheat
Procedure, shortened: as §1

SMILES	plant injury at 31 g/ha [%]
N#Cc1cccc(Oc2ncc(Cl)cn2)c1OC/C=C/C(F)(F)F [Compound 8, 3-[(5-chloro-2-pyrimidinyl)oxy]-2-[[(2E)-4,4,4-trifluoro-2-buten-1-yl]oxy]benzonitrile]	0

same assay, conditions: Triticum aestivum, post-emergence, 240 h; 125 g ai/ha, postemergence; 0 to 100 scale, 0 is no effect, 100 is complete control; approximately 10 days; read-out: Plant response rating, Wheat

SMILES	plant injury at 125 g/ha [%]
N#Cc1cccc(Oc2ncc(Cl)cn2)c1OC/C=C/C(F)(F)F [Compound 8, 3-[(5-chloro-2-pyrimidinyl)oxy]-2-[[(2E)-4,4,4-trifluoro-2-buten-1-yl]oxy]benzonitrile]	10

system: ragweed (common ragweed, Ambrosia elatior); assay: Test A preemergence, ragweed; assay type: in vivo; details: Ambrosia artemisiifolia, pre-emergence, 240 h; Preemergence, 31 g ai/ha; 0 to 100 scale (0 no effect, 100 complete control); read-out: Plant response rating, Ragweed
Procedure, shortened: as §1

SMILES	pest or weed control at 31 g/ha [%]
N#Cc1cccc(Oc2ncc(Cl)cn2)c1OC/C=C/C(F)(F)F [Compound 8, 3-[(5-chloro-2-pyrimidinyl)oxy]-2-[[(2E)-4,4,4-trifluoro-2-buten-1-yl]oxy]benzonitrile]	0

same assay, conditions: Ambrosia artemisiifolia, pre-emergence, 240 h; Preemergence, 125 g ai/ha; 0 to 100 scale (0 no effect, 100 complete control); read-out: Plant response rating, Ragweed

SMILES	pest or weed control at 125 g/ha [%]
N#Cc1cccc(Oc2ncc(Cl)cn2)c1OC/C=C/C(F)(F)F [Compound 8, 3-[(5-chloro-2-pyrimidinyl)oxy]-2-[[(2E)-4,4,4-trifluoro-2-buten-1-yl]oxy]benzonitrile]	0

system: pigweed (Amaranthus retroflexus); assay: Test A preemergence, pigweed; assay type: in vivo; details: Amaranthus retroflexus, pre-emergence, 240 h; Preemergence, 31 g ai/ha; 0 to 100 scale (0 no effect, 100 complete control); read-out: Plant response rating, Pigweed
Procedure, shortened: as §1

SMILES	pest or weed control at 31 g/ha [%]
N#Cc1cccc(Oc2ncc(Cl)cn2)c1OC/C=C/C(F)(F)F [Compound 8, 3-[(5-chloro-2-pyrimidinyl)oxy]-2-[[(2E)-4,4,4-trifluoro-2-buten-1-yl]oxy]benzonitrile]	100

same assay, conditions: Amaranthus retroflexus, pre-emergence, 240 h; Preemergence, 125 g ai/ha; 0 to 100 scale (0 no effect, 100 complete control); read-out: Plant response rating, Pigweed

SMILES	pest or weed control at 125 g/ha [%]
N#Cc1cccc(Oc2ncc(Cl)cn2)c1OC/C=C/C(F)(F)F [Compound 8, 3-[(5-chloro-2-pyrimidinyl)oxy]-2-[[(2E)-4,4,4-trifluoro-2-buten-1-yl]oxy]benzonitrile]	100

system: ducksalad (Heteranthera limosa); assay: Test B flooded paddy test, ducksalad; assay type: in vivo; details: Heteranthera limosa; 250 g ai/ha, Flood; visual rating after 13 to 15 days; scale 0 to 100, 0 is no effect, 100 is complete control; read-out: Plant response rating, Ducksalad
Procedure, shortened: (§2)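 Visual ratings, 0 = no effect to 100 = complete control, versus controls after 13 to 15 days in greenhouse. Test compounds were added to paddy water kept 3 cm over the soil surface, on plants at 2-leaf stage.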

SMILES	pest or weed control at 250 g/ha [%]
N#Cc1cccc(Oc2ncc(Cl)cn2)c1OC/C=C/C(F)(F)F [Compound 8, 3-[(5-chloro-2-pyrimidinyl)oxy]-2-[[(2E)-4,4,4-trifluoro-2-buten-1-yl]oxy]benzonitrile]	75

system: ryegrass, Italian (Italian ryegrass, Lolium multiflorum); assay: Test A preemergence, Italian ryegrass; assay type: in vivo; details: Lolium multiflorum, pre-emergence, 240 h; Preemergence, 31 g ai/ha; 0 to 100 scale (0 no effect, 100 complete control); read-out: Plant response rating, Ryegrass, Italian
Procedure, shortened: as §1

SMILES	pest or weed control at 31 g/ha [%]
N#Cc1cccc(Oc2ncc(Cl)cn2)c1OC/C=C/C(F)(F)F [Compound 8, 3-[(5-chloro-2-pyrimidinyl)oxy]-2-[[(2E)-4,4,4-trifluoro-2-buten-1-yl]oxy]benzonitrile]	0

same assay, conditions: Lolium multiflorum, pre-emergence, 240 h; Preemergence, 125 g ai/ha; 0 to 100 scale (0 no effect, 100 complete control); read-out: Plant response rating, Ryegrass, Italian

SMILES	pest or weed control at 125 g/ha [%]
N#Cc1cccc(Oc2ncc(Cl)cn2)c1OC/C=C/C(F)(F)F [Compound 8, 3-[(5-chloro-2-pyrimidinyl)oxy]-2-[[(2E)-4,4,4-trifluoro-2-buten-1-yl]oxy]benzonitrile]	30

system: corn (Zea mays); assay: Test A postemergence, corn; assay type: in vivo; details: Zea mays, post-emergence, 240 h; 31 g ai/ha, postemergence; 0 to 100 scale, 0 is no effect, 100 is complete control; approximately 10 days
Procedure, shortened: as §1

SMILES	Corn plant response rating (crop injury, 0 = no effect, 100 = complete kill) at 31 g/ha [%]
N#Cc1cccc(Oc2ncc(Cl)cn2)c1OC/C=C/C(F)(F)F [Compound 8, 3-[(5-chloro-2-pyrimidinyl)oxy]-2-[[(2E)-4,4,4-trifluoro-2-buten-1-yl]oxy]benzonitrile]	10

same assay, conditions: Zea mays, post-emergence, 240 h; 125 g ai/ha, postemergence; 0 to 100 scale, 0 is no effect, 100 is complete control; approximately 10 days

SMILES	Corn plant response rating (crop injury, 0 = no effect, 100 = complete kill) at 125 g/ha [%]
N#Cc1cccc(Oc2ncc(Cl)cn2)c1OC/C=C/C(F)(F)F [Compound 8, 3-[(5-chloro-2-pyrimidinyl)oxy]-2-[[(2E)-4,4,4-trifluoro-2-buten-1-yl]oxy]benzonitrile]	20

system: rice (Oryza sativa); assay: Test B flooded paddy test, rice; assay type: in vivo; details: Oryza sativa; 250 g ai/ha, Flood; visual rating after 13 to 15 days; scale 0 to 100, 0 is no effect, 100 is complete control; read-out: Plant response rating, Rice
Procedure, shortened: as §2

SMILES	plant injury at 250 g/ha [%]
N#Cc1cccc(Oc2ncc(Cl)cn2)c1OC/C=C/C(F)(F)F [Compound 8, 3-[(5-chloro-2-pyrimidinyl)oxy]-2-[[(2E)-4,4,4-trifluoro-2-buten-1-yl]oxy]benzonitrile]	0

system: pigweed (Amaranthus retroflexus); assay: Test A postemergence, pigweed; assay type: in vivo; details: Amaranthus retroflexus, post-emergence, 240 h; 31 g ai/ha, postemergence; 0 to 100 scale, 0 is no effect, 100 is complete control; approximately 10 days; read-out: Plant response rating, Pigweed
Procedure, shortened: as §1

SMILES	pest or weed control at 31 g/ha [%]
N#Cc1cccc(Oc2ncc(Cl)cn2)c1OC/C=C/C(F)(F)F [Compound 8, 3-[(5-chloro-2-pyrimidinyl)oxy]-2-[[(2E)-4,4,4-trifluoro-2-buten-1-yl]oxy]benzonitrile]	90

same assay, conditions: Amaranthus retroflexus, post-emergence, 240 h; 125 g ai/ha, postemergence; 0 to 100 scale, 0 is no effect, 100 is complete control; approximately 10 days; read-out: Plant response rating, Pigweed

SMILES	pest or weed control at 125 g/ha [%]
N#Cc1cccc(Oc2ncc(Cl)cn2)c1OC/C=C/C(F)(F)F [Compound 8, 3-[(5-chloro-2-pyrimidinyl)oxy]-2-[[(2E)-4,4,4-trifluoro-2-buten-1-yl]oxy]benzonitrile]	100

system: sedge, umbrella (small-flower umbrella sedge, Cyperus difformis); assay: Test B flooded paddy test, umbrella sedge; assay type: in vivo; details: Cyperus difformis; 250 g ai/ha, Flood; visual rating after 13 to 15 days; scale 0 to 100, 0 is no effect, 100 is complete control; read-out: Plant response rating, Sedge, Umbrella
Procedure, shortened: as §2

SMILES	pest or weed control at 250 g/ha [%]
N#Cc1cccc(Oc2ncc(Cl)cn2)c1OC/C=C/C(F)(F)F [Compound 8, 3-[(5-chloro-2-pyrimidinyl)oxy]-2-[[(2E)-4,4,4-trifluoro-2-buten-1-yl]oxy]benzonitrile]	100

system: barnyardgrass (Echinochloa crus-galli); assay: Test B flooded paddy test, barnyardgrass; assay type: in vivo; details: Echinochloa crus-galli; 250 g ai/ha, Flood; visual rating after 13 to 15 days; scale 0 to 100, 0 is no effect, 100 is complete control; read-out: Plant response rating, Barnyardgrass
Procedure, shortened: as §2

SMILES	pest or weed control at 250 g/ha [%]
N#Cc1cccc(Oc2ncc(Cl)cn2)c1OC/C=C/C(F)(F)F [Compound 8, 3-[(5-chloro-2-pyrimidinyl)oxy]-2-[[(2E)-4,4,4-trifluoro-2-buten-1-yl]oxy]benzonitrile]	0

system: barnyardgrass (Echinochloa crus-galli); assay: Test A preemergence, barnyardgrass; assay type: in vivo; details: Echinochloa crus-galli, pre-emergence, 240 h; Preemergence, 31 g ai/ha; 0 to 100 scale (0 no effect, 100 complete control); read-out: Plant response rating, Barnyardgrass
Procedure, shortened: as §1

SMILES	pest or weed control at 31 g/ha [%]
N#Cc1cccc(Oc2ncc(Cl)cn2)c1OC/C=C/C(F)(F)F [Compound 8, 3-[(5-chloro-2-pyrimidinyl)oxy]-2-[[(2E)-4,4,4-trifluoro-2-buten-1-yl]oxy]benzonitrile]	30

same assay, conditions: Echinochloa crus-galli, pre-emergence, 240 h; Preemergence, 125 g ai/ha; 0 to 100 scale (0 no effect, 100 complete control); read-out: Plant response rating, Barnyardgrass

SMILES	pest or weed control at 125 g/ha [%]
N#Cc1cccc(Oc2ncc(Cl)cn2)c1OC/C=C/C(F)(F)F [Compound 8, 3-[(5-chloro-2-pyrimidinyl)oxy]-2-[[(2E)-4,4,4-trifluoro-2-buten-1-yl]oxy]benzonitrile]	100

system: ragweed (common ragweed, Ambrosia elatior); assay: Test A postemergence, ragweed; assay type: in vivo; details: Ambrosia artemisiifolia, post-emergence, 240 h; 31 g ai/ha, postemergence; 0 to 100 scale, 0 is no effect, 100 is complete control; approximately 10 days; read-out: Plant response rating, Ragweed
Procedure, shortened: as §1

SMILES	pest or weed control at 31 g/ha [%]
N#Cc1cccc(Oc2ncc(Cl)cn2)c1OC/C=C/C(F)(F)F [Compound 8, 3-[(5-chloro-2-pyrimidinyl)oxy]-2-[[(2E)-4,4,4-trifluoro-2-buten-1-yl]oxy]benzonitrile]	0

same assay, conditions: Ambrosia artemisiifolia, post-emergence, 240 h; 125 g ai/ha, postemergence; 0 to 100 scale, 0 is no effect, 100 is complete control; approximately 10 days; read-out: Plant response rating, Ragweed

SMILES	pest or weed control at 125 g/ha [%]
N#Cc1cccc(Oc2ncc(Cl)cn2)c1OC/C=C/C(F)(F)F [Compound 8, 3-[(5-chloro-2-pyrimidinyl)oxy]-2-[[(2E)-4,4,4-trifluoro-2-buten-1-yl]oxy]benzonitrile]	10
